≈ marks a conversion by molar mass, not a printed value. Where two headings read alike, the source gives them in different places. Positions of bridges follow the written chain, without caps; N, C: chain ends. Non-standard residues stand in square brackets, D forms with d. Residues, ends and D or L forms follow the SMILES beside them. *: point of attachment. Myristoyl = CCCCCCCCCCCCCC(=O)*; Lauroyl = CCCCCCCCCCCC(=O)*
Columns and labels:
[1] = Cytotoxicity, XTT viability, non-cancer cells; assay type: cell-based; settings: mouse, non-cancer cell line, 24 h incubation, read-out: LC50, 3T3
Experimental: (§1) Prostate cancer cell lines (CL1 and 22RV1; ATCC, USA) were grown in RPMI-1640 supplemented with 10% FCS (Biological Industries, Beit Haemek, Israel). N1H-3T3 mouse fibroblast cell line (ATCC, USA) was grown in DMEM supplemented with 10% bovine serum. To test cytotoxicity against the cancer cells, aliquots of medium containing 1×10^4 cells were distributed into a 96-well plate (Falcon). After one day, the media were replaced with 90 μl of fresh media and 10 μl of a solution containing different concentrations of the peptides. The plate was then incubated for 24 h before adding to each well 50 μl of XTT reaction solution (Biological Industries, Beit Haemek, Israel); viability was determined as previously described (Papo et al., (2003) J. Biol. Chem. 278:21018-23). The LC50 (concentration at which 50% of the cells die) for each peptide was obtained from the dose-dependent cell viability curves.

[2] = tested on: Prostate cancer cell line CL1; experiment: Cytotoxicity, XTT viability; assay type: cell-based, human; settings: 24 h incubation, read-out: LC50, Prostate cancer CL1
Experimental: as §1

[3] = tested on: Prostate cancer cell line 22RV1; experiment: Cytotoxicity, XTT viability; assay type: cell-based, human; settings: 24 h incubation, read-out: LC50, Prostate cancer 22RV1
Experimental: as §1

in vitro [4] = assay type: in vitro ADME, bovine; settings: isolated enzyme trypsin, pH 7.3
Experimental: (§2) Equal amounts of the lipopeptides were dissolved in PBS (35 mM phosphate buffer/0.15 M NaCl, pH 7.3) to yield a final concentration of 140 μM to which 25 μM of either pepsin (from porcine stomach mucosa, Sigma), trypsin (from bovine pancreas, Sigma), or elastase (from human leukocytes, Sigma) were added. The samples were incubated under agitation for 30 min at 37° C. After addition of the appropriate protease inhibitor to stop the reaction, aliquots of the proteolytic digest were injected to C18 HPLC column and the amounts of the intact lipopeptide were evaluated using their absorbance at 215 nm.

in vitro [5] = assay type: in vitro ADME, porcine; settings: pig, isolated enzyme pepsin, pH 7.3
Experimental: as §2

[6] = Resistance to proteolytic digestion, intact lipopeptide by HPLC; assay type: in vitro ADME; settings: human, elastase from human leukocytes; 140 μM lipopeptide, 25 μM protease, 30 min at 37° C., PBS pH 7.3
Experimental: as §2

[7] = tested on: Aspergillus fumigatus ATCC 26430; experiment: microbe, parasite or virus in culture; assay type: cell-based
E. coli D21 = assay type: cell-based
[8] = tested on: Acinetobacter baumannii ATCC 19606; assay type: cell-based
Method in brief: (§3)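 Broth microdilution: bacteria at 1×10^6 CFU/ml in LB medium (pH 7.4 unless stated; pH 5.5 also tested) mixed 1:1 with 2-fold serial lipopeptide dilutions in water, 18-20 h at 37° C. Growth read at 600 nm; MIC taken as lowest concentration giving 100% growth inhibition.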

[9] = tested on: Staphylococcus aureus ATCC 6538P; assay type: cell-based
Method in brief: as §3

[10] = tested on: Pseudomonas aeruginosa ATCC 27853; assay type: cell-based
Method in brief: as §3

[11] = tested on: Escherichia coli ATCC 25922; assay type: cell-based
Method in brief: as §3

[12] = tested on: Cryptococcus neoformans ATCC 66031; experiment: microbe, parasite or virus in culture; assay type: cell-based
Method in brief: (§4)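 Broth microdilution in RPMI 1640/0.165 M MOPS, 1×10^4 CFU/ml inoculum, 2-fold serial lipopeptide dilutions in water, pH 7.4 unless stated (pH 5.5 alternative). Incubated 24–48 h at 35 °C with agitation; growth read at A620. MIC = lowest concentration giving 100% growth inhibition.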

[13] = tested on: Candida albicans ATCC 10231; experiment: microbe, parasite or virus in culture; assay type: cell-based
Method in brief: as §4

Compound: CC(C)C[C@@H](N)C(=O)N[C@@H](CCCNC(=N)N)C(=O)N[C@@H](CCCNC(=N)N)C(=O)N[C@H](CC(C)C)C(=O)N[C@H](CC(C)C)C(=O)N[C@@H](CCCNC(=N)N)C(=O)N[C@@H](CCCNC(=N)N)C(=O)N[C@H](CC(C)C)C(=O)N[C@H](CC(C)C)C(=O)N[C@@H](CCCNC(=N)N)C(=O)N[C@@H](CCCNC(=N)N)C(=O)N[C@H](CC(C)C)C(N)=O [DL6R6, LRRLLRRLLRRL, reference compound] (H-[dL]RR[dL][dL]RR[dL][dL]RR[dL]-NH2; N-terminus assumed)
- CC50 at 24 h [1]: > 100 µM
- CC50 [2]: > 100 µM
- CC50 [3]: 50 µM

Compound: CCCCCCCCCCCCCC(=O)N[C@H]1CSSC[C@@H](C(N)=O)NC(=O)[C@@H](CCCCN)NC(=O)CNC(=O)CNC(=O)[C@@H](CCCCN)NC(=O)CNC(=O)CNC(=O)CNC(=O)[C@@H](CCCCN)NC(=O)CNC(=O)CNC(=O)CNC(=O)[C@@H](CCCCN)NC1=O [lipopeptide 16] (Myristoyl-C[dK]GGG[dK]GGG[dK]GG[dK]C-NH2; disulfide 1-14)
- metabolised at 0.5 h, 140 μM (in vitro [4]): 0%
- metabolised at 0.5 h, 140 μM (in vitro [5]): 0%
- metabolised at 0.5 h, 140 μM [6]: 0%

Compound: CCCCCCCCCCCCCC(=O)N[C@H]1CSSC[C@@H](C(N)=O)NC(=O)[C@H](CCCCN)NC(=O)CNC(=O)CNC(=O)[C@H](CCCCN)NC(=O)CNC(=O)CNC(=O)CNC(=O)[C@H](CCCCN)NC(=O)CNC(=O)CNC(=O)CNC(=O)[C@H](CCCCN)NC1=O [lipopeptide 19] (Myristoyl-CKGGGKGGGKGGKC-NH2; disulfide 1-14)
- metabolised at 0.5 h, 140 μM (in vitro [4]): 100%
- metabolised at 0.5 h, 140 μM (in vitro [5]): 100%
- metabolised at 0.5 h, 140 μM [6]: 100%

Compound: CCCCCCCCCCCC(=O)N[C@H](CC(C)C)C(=O)N[C@@H](CCCNC(=N)N)C(=O)N[C@@H](CCCNC(=N)N)C(=O)N[C@H](CC(C)C)C(=O)N[C@H](CC(C)C)C(=O)N[C@@H](CCCNC(=N)N)C(=O)N[C@@H](CCCNC(=N)N)C(=O)N[C@H](CC(C)C)C(=O)N[C@H](CC(C)C)C(=O)N[C@@H](CCCNC(=N)N)C(=O)N[C@@H](CCCNC(=N)N)C(=O)N[C@H](CC(C)C)C(N)=O [lipopeptide 25, (CH3-(CH2)10-CO-)-D-Leu-Arg-Arg-D-Leu-D-Leu-Arg-Arg-D-Leu-D-Leu-Arg-Arg-D-Leu-NH2] (Lauroyl-[dL]RR[dL][dL]RR[dL][dL]RR[dL]-NH2)
- CC50 at 24 h [1]: 100 µM
- MIC ([7]; ATCC 26430, pH 5.5, read-out: Minimal inhibitory concentrations, A. Fumig. With serum): 50 µM (≈ 90.8 µg/mL)
- MIC ([7]; ATCC 26430, pH 5.5, read-out: Minimal inhibitory concentrations, A. Fumig. Without serum): 6.25 µM (≈ 11.3 µg/mL)
- MIC ([7]; ATCC 26430, pH 7.4, read-out: Minimal inhibitory concentrations, A. Fumig. With serum): 50 µM (≈ 90.8 µg/mL)
- MIC ([7]; ATCC 26430, pH 7.4, read-out: Minimal inhibitory concentrations, A. Fumig. Without serum): 3.125 µM (≈ 5.67 µg/mL)
- Minimal inhibitory concentrations, E. Coli D21 (E. coli D21; D21, pH 5.5): 50 µM (≈ 90.8 µg/mL)
- Minimal inhibitory concentrations, E. Coli D21 (E. coli D21; D21, pH 7.4): 50 µM (≈ 90.8 µg/mL)
- Minimal inhibitory concentrations, A. baumannii ATCC 19606 ([8]; ATCC 19606, pH 5.5): 75 µM (≈ 136 µg/mL)
- Minimal inhibitory concentrations, A. baumannii ATCC 19606 ([8]; ATCC 19606, pH 7.4): >100 µM
- Minimal inhibitory concentrations, S. aureus II ATCC 6538P ([9]; ATCC 6538, pH 5.5): 50 µM (≈ 90.8 µg/mL)
- Minimal inhibitory concentrations, S. aureus II ATCC 6538P ([9]; ATCC 6538, pH 7.4): 12.5 µM (≈ 22.7 µg/mL)
- Minimal inhibitory concentrations, P. Aeruginosa ATCC 27853 ([10]; ATCC 27853, pH 5.5): 50 µM (≈ 90.8 µg/mL)
- Minimal inhibitory concentrations, P. Aeruginosa ATCC 27853 ([10]; ATCC 27853, pH 7.4): 50 µM (≈ 90.8 µg/mL)
- Minimal inhibitory concentrations, E. Coli ATCC 25922 ([11]; ATCC 25922, pH 5.5): 100 µM (≈ 182 µg/mL)
- Minimal inhibitory concentrations, E. Coli ATCC 25922 ([11]; ATCC 25922, pH 7.4): >100 µM
- CC50 [2]: 3.12 µM
- CC50 [3]: 3.12 µM
- MIC ([12]; ATCC 66031, pH 5.5, read-out: Minimal inhibitory concentrations, C. Neofor. With serum): 2.34 µM (≈ 4.25 µg/mL)
- MIC ([12]; ATCC 66031, pH 5.5, read-out: Minimal inhibitory concentrations, C. Neofor. Without serum): <0.78 µM
- MIC ([12]; ATCC 66031, pH 7.4, read-out: Minimal inhibitory concentrations, C. Neofor. With serum): <0.78 µM
- MIC ([12]; ATCC 66031, pH 7.4, read-out: Minimal inhibitory concentrations, C. Neofor. Without serum): <0.78 µM
- MIC ([13]; ATCC 10231, pH 5.5, read-out: Minimal inhibitory concentrations, C. Albicans With serum): 100 µM (≈ 182 µg/mL)
- MIC ([13]; ATCC 10231, pH 5.5, read-out: Minimal inhibitory concentrations, C. Albicans Without serum): 12.5 µM (≈ 22.7 µg/mL)
- MIC ([13]; ATCC 10231, pH 7.4, read-out: Minimal inhibitory concentrations, C. Albicans With serum): 100 µM (≈ 182 µg/mL)
- MIC ([13]; ATCC 10231, pH 7.4, read-out: Minimal inhibitory concentrations, C. Albicans Without serum): 3.125 µM (≈ 5.67 µg/mL)

From patent US8445636B2, “Antimicrobial and anticancer lipopeptides” (Yeda Research & Development Co. Ltd., priority 2003, dated 2013)
